We go through nine compounds from patent publication US20240197701A1, “ANDROGEN RECEPTOR INHIBITION TO TREAT SEPSIS AND SHOCK” (priority 2021, published 2024).

The test system of data set [1] is SARS-COV-2. The settings on record: for Resolution of Symptoms Odds ratio / Viral Clearance Odds ratio: multivariate logistic regression, within 7 days, azithromycin with the listed drug(s), hydroxychloroquine = reference, N = 475; for Resolution of Symptoms Odds ratio: except anosmia, ageusia; for Increase in viral clearance rate: first 7 days of therapy; for Increase in viral clearance rate / Increase in symptom resolution rate: versus control; for Increase in symptom resolution rate: first week of therapy; for Viral clearance at seven days in men: spironolactone compared to dutasteride; for Odds ratio for viral clearance within seven days when used with nitazoxanide: multivariate analysis; for Adverse events: short duration administration.

In data set [2] the test system is COVID-19. The settings on record: 5 mg daily, without achieving statistical significance; cited from earlier work.
For data set [3] the following is noted: in vivo; cited from earlier work.
Data set [4] deals with COVID-19. Particulars: RECOVERY platform trial; cited from earlier work.
Data set [5] deals with SARS-COV-2. The settings on record: dutasteride 0.5 mg per day, male patients; cited from earlier work.
For data set [6], the system named is COVID-19. The settings on record: intensive care observational series; cited from earlier work.
For data set [7], the system named is COVID-19. As to the kind of experiment: Proxalutamide treatment for hospitalized COVID-19 patients, double-blinded placebo-controlled trial, preliminary report. The settings on record: n = 294. The class given is in vivo.
In data set [8] the test system is COVID-19. Particulars: cited from earlier work.
For data set [9], the system named is COVID-19. Particulars: single case, after starting proxalutamide; cited from earlier work.
In data set [10] the test system is SARS-COV-2. Particulars: cited from earlier work.
In data set [11] the test system is COVID-19.

Where two headings read alike, the source gives them in different places.

On to Ivermectin, for which, in the data set with SARS-COV-2 [1], the “Resolution of Symptoms Odds ratio” value amounted to 1.45 and the “Viral Clearance Odds ratio” value came to 0.32.

On to `CC(=O)S[C@@H]1CC2=CC(=O)CC[C@]2(C)[C@H]2CC[C@@]3(C)[C@@H](CC[C@@]34CCC(=O)O4)[C@H]12` [spironolactone], for which, in the data set with SARS-COV-2 [1], the “Increase in viral clearance rate” value amounted to 320%, the “Increase in symptom resolution rate” value is on record as 70%, the “Viral clearance at seven days in men” value stood at 40% and the Adverse events entry is reported as “no adverse events noted”. In the data set with SARS-COV-2 [1] (with nitazoxanide), the “Odds ratio for viral clearance within seven days when used with nitazoxanide” value came to 10.1 and the “Viral clearance at seven days, added to nitazoxanide” value was 42%. In addition, in the data set on SARS-COV-2 [1] (spironolactone initiated at the time of COVID-19 diagnosis), the “Viral clearance at seven days” value is given as 34%. The “Viral clearance at seven days, added to ivermectin” value in the data set with SARS-COV-2 [1] (with ivermectin) is given as 26%.

As to `CC(C)(C)NC(=O)[C@H]1CC[C@H]2[C@@H]3CC[C@H]4NC(=O)C=C[C@]4(C)[C@H]3CC[C@]12C` [finasteride], the Inpatient mortality result in the data set with COVID-19 [2] is on record as “reduced inpatient mortality”. For the same compound, the Half-life result in [3] is “six”.

Take `COc1cc2c(c(OC)c1OC)-c1ccc(OC)c(=O)cc1[C@@H](NC(C)=O)CC2` [Colchicine]: the “28-day mortality rate ratio” value in the data set with COVID-19 [4] is given as 1.01.

For the compound `CC(=O)Oc1ccccc1C(=O)Nc1ncc([N+](=O)[O-])s1` [Nitazoxanide], in the data set with SARS-COV-2 [1], the “Resolution of Symptoms Odds ratio” value is reported as 2.08 and the “Viral Clearance Odds ratio” value was 1.88. Further, the “Association with faster viral clearance” value in the data set with SARS-COV-2 [1] (two times a day for 6 days combined with azithromycin) is “not associated faster clearance”.

For `CCN(CCO)CCCC(C)Nc1ccnc2cc(Cl)ccc12` (stereo not shown) [Hydroxychloroquine], in the data set with SARS-COV-2 [1], the “Resolution of Symptoms Odds ratio” value is 1 and the “Viral Clearance Odds ratio” value was determined as 1.

For the compound `C[C@]12C=CC(=O)N[C@@H]1CC[C@@H]1[C@@H]2CC[C@]2(C)[C@@H](C(=O)Nc3cc(C(F)(F)F)ccc3C(F)(F)F)CC[C@@H]12` [dutasteride], in the data set on SARS-COV-2 [1], the “Increase in viral clearance rate” value is listed as 320%, the “Increase in symptom resolution rate” value was 70%, the “Viral clearance at seven days in men” value was 21% and the Adverse events result was “no adverse events noted”. For the same compound, in the data set on SARS-COV-2 [1] (with nitazoxanide), the “Odds ratio for viral clearance within seven days when used with nitazoxanide” value worked out at 7.1. In the data set with SARS-COV-2 [1] (nitazoxanide male users), the “Viral clearance at seven days among nitazoxanide male users” value came out at 21%. Besides, the “Viral clearance at seven days” value in the data set on SARS-COV-2 [5] is on record as 64.3%. Moreover, the Half-life entry in data set [3] was “five”.

`C[C@]12CCC(=O)C=C1C=C[C@@H]1[C@@H]2CC[C@@]2(C)[C@H]1CC[C@@]21CCC(=O)O1` [Canrenone]: the Fatalities entry in the data set on COVID-19 [6] is recorded as “reduced fatalities”.

In the case of `CC1(C)C(=O)N(c2ccc(C#N)c(C(F)(F)F)c2F)C(=S)N1c1ccc(CCCc2ncco2)nc1` [proxalutamide], in the data set with COVID-19 [7] (hospitalized COVID-19 patients, proxalutamide 300 mg q.d.), the “Mortality (%) Day 14” value came out at 3.7%. Further, in the data set with COVID-19 [7], the “Discharged (%) Day 14” value is given as 89.1%; the “Full clinical remission (%) Day 14” value was 75.9%; the “HFO, NIV, or MV use, or death (%) Day 14” value stood at 4.8%; the “Hospital Length Stay (Days) Mean ± SD” value was 6.3 ± 5.3 days. In the data set with COVID-19 [7], the “Hospital Length Stay (Days) Median (IQR)” value came to 5.0 days, the “Improvement in clinical status - Ordinary scale (days) One point Mean ± SD” value is given as 3.0 ± 5.5 days, the “Improvement in clinical status - Ordinary scale (days) One point Median (IQR)” value worked out at 1.0 days and the “Improvement in clinical status - Ordinary scale (days) Two points Mean ± SD” value came out at 5.5 ± 7.1 days. In addition, in the data set on COVID-19 [7], the “Improvement in clinical status - Ordinary scale (days) Two points Median (IQR)” value is reported as 3.0 days, the “New mechanical ventilation (MV) or Death (%) Day 14” value was 4.4%, the “No HFO or NIV use (%) Day 14” value turned out to be 95.2% and the “No oxygen use (%) Day 14” value was 92.5%. Besides, in the data set with COVID-19 [8] (compared to usual care), the “Reduction of the risk of hospitalization” value is reported as 91%. Also, the 30-day hospitalization rate in the data set on COVID-19 [8] (proxalutamide 200 mg for up to seven days, men) was 2.2%. The “Time to striking symptom resolution and laboratory improvement” value in the data set with COVID-19 [9] is given as “twenty-four”. Further, in the data set with SARS-COV-2 [10] (men), the “Viral clearance at seven days in men” value is on record as 81%. Further, in the data set on SARS-COV-2 [10] (women), the “Viral clearance at seven days in women” value is given as 85%. Further, in the data set with COVID-19 [11] (COVID-19 8-point ordinal scale), the “28-day median ordinal scale score” value is recorded as 1. Further, the “14-day median ordinal scale score” value with COVID-19 [11] (COVID-19 8-point ordinal scale, intention-to-treat, proxalutamide 300 mg/day) was determined as 1. In addition, in the data set with COVID-19 [11] (alive hospital discharge), the “Median post-randomization time to recovery” value is recorded as 5 days. The same compound returned a 14-day recovery rate with COVID-19 [11] (alive hospital discharge (scores 1, 2), intention-to-treat) of 81.4%. For the same compound, in the data set with COVID-19 [11] (during the study period), the “Less likely to die than patients in the control group” value stood at 84%. In the data set with COVID-19 [11] (human, in vivo), the “Median hospitalization time (days)” value is “eight” and the “Treatment emergent adverse events” value is recorded as “limited to diarrhea”. Moreover, the “Difference in the proportion of alive hospital discharge” value in the data set with COVID-19 [11] (increased until day 11) came to 75%. The “28-day all-cause mortality rate” value in the data set on COVID-19 [11] (intention-to-treat) worked out at 11.0%. Also, in the data set on COVID-19 [11] (over 28 days, versus placebo), the “Hazard ratio for all-cause mortality (death)” value worked out at 0.16 and the “Risk ratio for death” value turned out to be 0.22. In addition, the “Number needed to treat (NNT) to prevent one death” value in the data set with COVID-19 [11] (over twenty-eight days) came to 3. Besides, in the data set with COVID-19 [11] (proxalutamide arm), the “Adverse events grades 4 or 3” value worked out at 2.2%, the Diarrhea is 16.1% and the Irritability is on record as 1.3%. For the same compound, in the data set with COVID-19 [11] (versus placebo), the 14-day recovery ratio turned out to be 2.28, the 28-day recovery ratio stood at 1.81, the “Higher recovery rate than placebo at 28 days” value worked out at 81% and the “Higher recovery rate than placebo at day 14” value is 128%.
